Key:
Experiment in all cases: TMT LC-MSMS of 11-labelled proteins
Format in all cases: cell-based
[1] = target: Actin, cytoplasmic 1 (ACTB) (Homo sapiens, UniProt P60709)
[2] = target: T1, dehydrogenase/reductase SDR family member 2, mitochondrial (DHRS2) (Homo sapiens, UniProt Q13268)
T1 sequence (Q13268 24-280): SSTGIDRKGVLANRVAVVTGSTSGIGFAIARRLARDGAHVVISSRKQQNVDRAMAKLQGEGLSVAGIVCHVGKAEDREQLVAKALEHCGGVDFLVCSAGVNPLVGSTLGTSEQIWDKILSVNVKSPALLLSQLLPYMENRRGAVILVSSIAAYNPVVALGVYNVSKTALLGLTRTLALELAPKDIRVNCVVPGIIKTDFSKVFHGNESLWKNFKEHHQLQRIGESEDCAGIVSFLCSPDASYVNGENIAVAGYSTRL

[3] = target: Protein disulfide-isomerase (P4HB) (Homo sapiens, UniProt P07237)
Sequence of Protein disulfide-isomerase (P4HB) (P07237 18-508): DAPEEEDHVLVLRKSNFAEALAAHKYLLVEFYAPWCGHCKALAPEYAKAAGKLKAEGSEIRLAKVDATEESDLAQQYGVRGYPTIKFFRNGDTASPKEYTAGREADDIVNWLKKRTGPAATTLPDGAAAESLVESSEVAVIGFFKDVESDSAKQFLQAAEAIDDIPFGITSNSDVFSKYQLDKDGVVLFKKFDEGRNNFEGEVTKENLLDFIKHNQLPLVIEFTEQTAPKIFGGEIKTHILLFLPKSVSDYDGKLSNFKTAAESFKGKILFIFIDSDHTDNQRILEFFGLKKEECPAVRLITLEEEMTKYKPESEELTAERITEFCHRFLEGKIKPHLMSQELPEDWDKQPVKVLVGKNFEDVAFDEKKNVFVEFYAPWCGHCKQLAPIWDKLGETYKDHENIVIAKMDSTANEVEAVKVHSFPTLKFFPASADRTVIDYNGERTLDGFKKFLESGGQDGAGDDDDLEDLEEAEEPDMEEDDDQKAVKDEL

[4] = target: Heat shock cognate 71 kDa protein (HSPA8) (Homo sapiens, UniProt P11142)
Sequence of Heat shock cognate 71 kDa protein (HSPA8) (P11142 whole entry): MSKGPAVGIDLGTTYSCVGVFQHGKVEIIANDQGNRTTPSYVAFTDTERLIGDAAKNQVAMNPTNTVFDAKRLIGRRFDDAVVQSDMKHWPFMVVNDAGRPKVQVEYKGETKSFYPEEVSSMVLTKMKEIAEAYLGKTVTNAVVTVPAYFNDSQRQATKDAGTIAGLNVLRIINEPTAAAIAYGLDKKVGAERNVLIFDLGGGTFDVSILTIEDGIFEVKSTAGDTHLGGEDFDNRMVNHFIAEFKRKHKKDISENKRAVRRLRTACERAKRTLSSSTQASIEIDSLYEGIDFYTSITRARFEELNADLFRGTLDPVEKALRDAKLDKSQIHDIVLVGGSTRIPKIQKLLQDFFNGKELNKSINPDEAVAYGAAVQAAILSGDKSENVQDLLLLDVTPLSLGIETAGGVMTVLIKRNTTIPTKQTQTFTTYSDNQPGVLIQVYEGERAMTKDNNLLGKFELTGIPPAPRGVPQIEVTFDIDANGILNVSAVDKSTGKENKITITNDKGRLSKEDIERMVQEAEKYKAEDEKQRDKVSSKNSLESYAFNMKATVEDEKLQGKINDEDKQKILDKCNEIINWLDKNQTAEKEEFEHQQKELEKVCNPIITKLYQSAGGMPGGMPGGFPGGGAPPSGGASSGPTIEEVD

[5] = sheet Exp1, SKBR3 cells, 11 0.5 µM 3 h vs DMSO
[6] = sheet Exp1, SKBR3 cells, 11 0.5 µM 3 h vs with PU-H71 10 µM
[7] = sheet Merged, SKBR3 cells, 11 0.5 µM 3 h vs DMSO
[8] = sheet Merged, SKBR3 cells, 11 0.5 µM 3 h vs with PU-H71 10 µM

## CC(=O)Oc1ccc2c(c1)Oc1cc(OC(C)=O)ccc1C21OC(=O)c2cc(C(=O)NCCOCCOCCNC(=O)CCCC(=O)N(CC#N)S(=O)(=O)c3ccc(C(=O)NCCCn4c(Sc5cc6c(cc5I)OCO6)nc5c(N)ncnc54)cc3)ccc21 [compound 11]
[1]; Exp3, ACTB
  Abundance Ratio: (11) / (11 with PU-H71): 0.843
  Abundance Ratio: (11) / (DMSO): 2.666
  Abundances (Grouped): 11: 445.7
  Abundances (Grouped): 11 with PU-H71: 528.9
[1]; [5]
  Abundance Ratio: (11) / (DMSO): 3.266
[1]; [6]
  Abundance Ratio: (11) / (11 with PU-H71): 0.822
[1]; sheet Exp2, ACTB
  Abundance Ratio: (11) / (11 with PU-H71): 0.825
  Abundance Ratio: (11) / (DMSO): 3.623
  Abundances (Grouped): 11: 493.5
  Abundances (Grouped): 11 with PU-H71: 598.3
[1]; [7]
  Abundance Ratio: (11) / (DMSO): 3.272
[1]; [8]
  Abundance Ratio: (11) / (11 with PU-H71): 0.843
[2]; Exp3, DHRS2
  Abundance Ratio: (11) / (11 with PU-H71): 0.644
  Abundance Ratio: (11) / (DMSO): 2.859
  Abundances (Grouped): 11: 223.6
  Abundances (Grouped): 11 with PU-H71: 347.1
[2]; [5]
  Abundance Ratio: (11) / (DMSO): 3.162
[2]; [6]
  Abundance Ratio: (11) / (11 with PU-H71): 0.783
[2]; sheet Exp2, DHRS2
  Abundance Ratio: (11) / (11 with PU-H71): 0.6
  Abundance Ratio: (11) / (DMSO): 3.132
  Abundances (Grouped): 11: 156.3
  Abundances (Grouped): 11 with PU-H71: 260.6
[2]; [7]
  Abundance Ratio: (11) / (DMSO): 2.859
[2]; [8]
  Abundance Ratio: (11) / (11 with PU-H71): 0.644
[3]; Exp3, P4HB
  Abundance Ratio: (11) / (11 with PU-H71): 0.934
  Abundance Ratio: (11) / (DMSO): 3.442
  Abundances (Grouped): 11: 191.7
  Abundances (Grouped): 11 with PU-H71: 205.3
[3]; [5]
  Abundance Ratio: (11) / (DMSO): 2.885
[3]; [6]
  Abundance Ratio: (11) / (11 with PU-H71): 0.887
[3]; sheet Exp2, P4HB
  Abundance Ratio: (11) / (11 with PU-H71): 0.87
  Abundance Ratio: (11) / (DMSO): 2.206
  Abundances (Grouped): 11: 186
  Abundances (Grouped): 11 with PU-H71: 213.9
[3]; [7]
  Abundance Ratio: (11) / (DMSO): 2.274
[3]; [8]
  Abundance Ratio: (11) / (11 with PU-H71): 0.896
[4]; Exp3, HSPA8
  Abundance Ratio: (11) / (11 with PU-H71): 1.213
  Abundance Ratio: (11) / (DMSO): 3.219
  Abundances (Grouped): 11: 407.2
  Abundances (Grouped): 11 with PU-H71: 335.6
[4]; [5]
  Abundance Ratio: (11) / (DMSO): 3.395
[4]; [6]
  Abundance Ratio: (11) / (11 with PU-H71): 1.175
[4]; sheet Exp2, HSPA8
  Abundance Ratio: (11) / (11 with PU-H71): 1.256
  Abundance Ratio: (11) / (DMSO): 4.511
  Abundances (Grouped): 11: 471.4
  Abundances (Grouped): 11 with PU-H71: 375.4
[4]; [7]
  Abundance Ratio: (11) / (DMSO): 3.381
[4]; [8]
  Abundance Ratio: (11) / (11 with PU-H71): 1.191
